Reference: article PMC8972196, “A Set of Experimentally Validated Decoys for the Human CC Chemokine Receptor 7 (CCR7) Obtained by Virtual Screening” (Frontiers in Pharmacology, 2022)
Like-named read-outs stand apart in the source and are kept apart here.

Target: T1, human CCR7 (Homo sapiens, UniProt P32248)
T1 construct: expressed in transfected cells
T1 sequence (P32248 25-378): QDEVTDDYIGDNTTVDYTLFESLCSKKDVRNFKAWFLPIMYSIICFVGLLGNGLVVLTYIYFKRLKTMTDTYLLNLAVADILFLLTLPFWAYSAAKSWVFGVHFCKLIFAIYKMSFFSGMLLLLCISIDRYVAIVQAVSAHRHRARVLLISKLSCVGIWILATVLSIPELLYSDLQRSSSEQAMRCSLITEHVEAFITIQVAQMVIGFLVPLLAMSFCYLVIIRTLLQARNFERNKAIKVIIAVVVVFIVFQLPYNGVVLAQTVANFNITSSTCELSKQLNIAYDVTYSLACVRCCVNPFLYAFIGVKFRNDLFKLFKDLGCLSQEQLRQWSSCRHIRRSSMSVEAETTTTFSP
Test: CCL19-induced calcium mobilization assay, U87.CD4 cells expressing CCR7
Assay type: cell-based
How it was run: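 U87.CD4 cells stably expressing human CCR7, CXCR2 or CCR5 were seeded at 20,000 cells/well and incubated overnight at 37°C and 5% CO2. Cells were then incubated for 45 min at room temperature in the dark before calcium responses were recorded. CCR7 responses were induced with CCL19 and CXCR2 responses with CXCL8.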

[1] = CCL19 induced calcium signaling, read-out: IC50 [μM] block CCL19 induced calcium signaling
[2] = classification as decoy or active on CCR7
[3] = CCL19-induced calcium signaling, read-out: IC50 [μM] block CCL19 induced calcium signaling
[4] = classification of tested compounds as decoy or active

| Structure (SMILES) | IC50 [1] [µM] | Decoy – 0 Active – 1 [2] | IC50 [3] [µM] | Decoy – 0 Active – 1 [4] | IC50 [µM] |
| --- | --- | --- | --- | --- | --- |
| Cc1ccc(S(=O)(=O)N(CCC(N)=O)Cc2ccccc2)cc1 [C258, Cc1ccc(cc1)S(=O)(=O)N(CCC(=O)N)Cc2ccccc2] | > 50 | 0 | – | – | – |
| Cc1ccc(S(=O)(=O)N(CC(O)CN2CCCCC2)c2ccccc2)cc1 (centres unmarked) [C244, Cc1ccc(cc1)S(=O)(=O)N(CC(C[NH+]2CCCCC2)O)c3ccccc3] | > 50 | 0 | – | – | – |
| Cc1cccc([C@H](NC(=O)c2cc(-c3ccccc3F)n[nH]2)C2CC2)n1 [C136, Cc1cccc([C@H](NC(=O)c2cc(-c3ccccc3F)n[nH]2)C2CC2)n1] | – | – | > 50 | 0 | – |
| O=C(COc1ccccc1O)NCc1ccccc1Cl [C174, O=C(COc1ccccc1O)NCc1ccccc1Cl] | > 50 | 0 | – | – | – |
| CC(O)CNc1c(NCc2ccc3c(c2)OCO3)c(=O)c1=O (centres unmarked) [C001, CC(O)CNc1c(NCc2ccc3c(c2)OCO3)c(=O)c1=O] | – | – | > 50 | 0 | – |
| Cc1ccc(N2C(=O)C3C(C(=O)O)NC(c4ccccc4O)C3C2=O)cc1 (centres unmarked) [C186, Cc1ccc(N2C(=O)C3C(C(=O)[O-])[NH2+]C(c4ccccc4O)C3C2=O)cc1] | > 50 | 0 | – | – | – |
| O=C1CCCc2[nH]c(=O)c(C(=O)NC3CCc4cc(F)ccc43)cc21 (centres unmarked) [C286, O=C1CCCc2[nH]c(=O)c(C(=O)NC3CCc4cc(F)ccc43)cc21] | > 50 | 0 | – | – | – |
| CCc1ccc(C(NC(=O)NC2C=CC(CO)C2)C(C)(C)C)o1 (centres unmarked) [C200, CCc1ccc(C(NC(=O)NC2C=CC(CO)C2)C(C)(C)C)o1] | > 50 | 0 | – | – | – |
| CC(C)(C)c1ccc(CN(Cc2ccccc2)Cc2nc(C(=O)N3CCOCC3)co2)cc1 [C243, CC(C)(C)c1ccc(cc1)C[NH+](Cc2ccccc2)Cc3nc(co3)C(=O)N4CCOCC4] | > 50 | 0 | – | – | – |
| CC1CN(C(=O)c2cc3c(OC(F)(F)F)cccc3[nH]2)CC(=O)N1 (centres unmarked) [C176, CC1CN(C(=O)c2cc3c(OC(F)(F)F)cccc3[nH]2)CC(=O)N1] | > 50 | 0 | – | – | – |
| FC(F)(F)c1ccccc1NC(=S)Nc1ccc(OCc2ccccc2)cc1 [C035, FC(F)(F)c1ccccc1NC(=S)Nc1ccc(OCc2ccccc2)cc1] | – | – | > 30 | 0 | – |
| CN(C)C(=O)c1cccc(NCC(=O)NCC2(c3ccccc3)CCC2)c1 [C052, CN(C)C(=O)c1cccc(NCC(=O)NCC2(c3ccccc3)CCC2)c1] | – | – | > 10 | 0 | – |
| O=C(NCC(O)(c1ccccc1)C(F)(F)F)c1cc(=O)c2ccccc2o1 (centres unmarked) [C208, O=C(NCC(O)(c1ccccc1)C(F)(F)F)c1cc(=O)c2ccccc2o1] | > 50 | 0 | – | – | – |
| CC1(C)[C@H]2CC[C@@]1(CNc1c(NCc3cc(C(F)(F)F)cc(C(F)(F)F)c3)c(=O)c1=O)[C@H](N1CCCC1)C2 [C019, O=C1C(NC[C@]23CC[C@H](C3(C)C)C[C@H]2N4CCCC4)=C(NCC5=CC(C(F)(F)F)=CC(C(F)(F)F)=C5)C1=O] | – | – | > 50 | 0 | – |
| Cc1nc(CCCC(=O)N[C@H]2CCN(C(C)C)C2=O)cs1 [C090, Cc1nc(CCCC(=O)N[C@H]2CCN(C(C)C)C2=O)cs1] | – | – | > 50 | 0 | – |
| Cc1cccc2c(=O)n(CCC(=O)N[C@@H](c3ccccc3)C(C)C)cnc12 [C131, Cc1cccc2c(=O)n(CCC(=O)N[C@@H](c3ccccc3)C(C)C)cnc12] | – | – | > 50 | 0 | – |
| Cc1ccccc1C(O)CNC(=O)NCCc1cccc(C(N)=O)c1 (centres unmarked) [C217, Cc1ccccc1C(O)CNC(=O)NCCc1cccc(C(N)=O)c1] | > 50 | 0 | – | – | – |
| CN(C)C(=O)Cn1cccc(NC(=O)CCC(C)(C)c2ccccc2)c1=O [C128, CN(C)C(=O)Cn1cccc(NC(=O)CCC(C)(C)c2ccccc2)c1=O] | – | – | > 50 | 0 | – |
| CN(C)[C@@H]1CCCC[C@H]1NC(=S)Nc1cc(C(F)(F)F)cc(C(F)(F)F)c1 [C039, S=C(N[C@H]1[C@H](N(C)C)CCCC1)NC2=CC(C(F)(F)F)=CC(C(F)(F)F)=C2] | – | – | > 50 | 0 | – |
| CC(C)[C@@H](Nc1nccc(CCC(F)(F)F)n1)c1nccn1C [C146, CC(C)[C@@H](Nc1nccc(CCC(F)(F)F)n1)c1nccn1C] | – | – | > 50 | 0 | – |
| COc1ccc(S(=O)(=O)N(CC(=O)Nc2cccc(OC)c2)c2ccccc2)cc1 [C245, COc1ccc(cc1)S(=O)(=O)N(CC(=O)Nc2cccc(c2)OC)c3ccccc3] | > 50 | 0 | – | – | – |
| CNC(=O)c1ccc(C=CC(=O)N(C2CC2)C(C)c2ccco2)cc1 (centres unmarked) [C055, CNC(=O)c1ccc(C=CC(=O)N(C2CC2)C(C)c2ccco2)cc1] | – | – | > 10 | 0 | – |

| Structure (SMILES) | IC50 [1] [µM] | Decoy – 0 Active – 1 [2] | IC50 [3] [µM] | Decoy – 0 Active – 1 [4] | IC50 [µM] |
| --- | --- | --- | --- | --- | --- |
| O=C(CNc1c(NCc2ccc3c(c2)OCO3)c(=O)c1=O)N1CCCC1 [C010, O=C(CNc1c(NCc2ccc3c(c2)OCO3)c(=O)c1=O)N1CCCC1] | – | – | > 50 | 0 | – |
| CC(O)CNc1c(N2CCN(Cc3ccccc3Cl)CC2)c(=O)c1=O (centres unmarked) [C007, CC(O)CNc1c(N2CC[NH+](Cc3ccccc3Cl)CC2)c(=O)c1=O] | – | – | – | 0 | > 50 |
| Cc1ccccc1NC(=O)c1c(O)nc2ccccc2c1O [C170, Cc1ccccc1NC(=O)c1c(O)nc2ccccc2c1O] | > 50 | 0 | – | – | – |
| CCOC[C@H]1CCN(C(=O)Nc2cccn(CC(F)(F)F)c2=O)C1 [C104, CCOC[C@H]1CCN(C(=O)Nc2cccn(CC(F)(F)F)c2=O)C1] | – | – | > 50 | 0 | – |
| O=C(NCC(C1CC1)C1CC1)N1CCC(O)(C(F)(F)F)CC1 [C166, O=C(NCC(C1CC1)C1CC1)N1CCC(O)(C(F)(F)F)CC1] | > 50 | 0 | – | – | – |
| Cc1ccc(S(=O)(=O)N2c3ccccc3CC2CO)cc1[N+](=O)[O-] (centres unmarked) [C266, Cc1ccc(cc1[N+](=O)[O-])S(=O)(=O)N2c3ccccc3CC2CO] | > 50 | 0 | – | – | – |
| COc1ccc(CNc2c(NC(C)c3ccccc3)c(=O)c2=O)cc1OC (centres unmarked) [C014, COc1ccc(CNc2c(NC(C)c3ccccc3)c(=O)c2=O)cc1OC] | – | – | > 50 | 0 | – |
| C[C@H](Nc1c(N[C@H]2C[C@H]3CC[C@@]2(CN2CCCC2)C3(C)C)c(=O)c1=O)c1cccc2ccccc12 [C022, CC1(C)[C@@H]2CC[C@]1(CN3CCCC3)[C@@H](NC(C4=O)=C(N[C@H](C5=CC=CC6=C5C=CC=C6)C)C4=O)C2] | – | – | > 50 | 0 | – |
| Cc1ccc(S(=O)(=O)C(CNS(=O)(=O)c2ccc(F)cc2)c2cccnc2)cc1 (centres unmarked) [C262, Cc1ccc(cc1)S(=O)(=O)C(CNS(=O)(=O)c2ccc(cc2)F)c3cccnc3] | > 50 | 0 | – | – | – |
| O=C(CCCc1c[nH]c2ccccc12)N1CCN(C(=O)CCCc2c[nH]c3ccccc23)CC1 [C209, O=C(CCCc1c[nH]c2ccccc12)N1CCN(C(=O)CCCc2c[nH]c3ccccc23)CC1] | > 50 | 0 | – | – | – |
| Cc1ocnc1C(=O)N[C@@H]1CC(=O)N(Cc2ccc(F)cc2)C1 [C139, Cc1ocnc1C(=O)N[C@@H]1CC(=O)N(Cc2ccc(F)cc2)C1] | – | – | > 50 | 0 | – |
| CC1CN(S(=O)(=O)c2ccc(CCC(=O)O)cc2)c2ccccc21 (centres unmarked) [C268, CC1CN(c2c1cccc2)S(=O)(=O)c3ccc(cc3)CCC(=O)[O-]] | > 50 | 0 | – | – | – |
| O=C(Nc1ccc(Cl)cc1Cl)NC(Cc1ccc(O)cc1)C(=O)O (centres unmarked) [C184, O=C(Nc1ccc(Cl)cc1Cl)NC(Cc1ccc(O)cc1)C(=O)[O-]] | > 50 | 0 | – | – | – |
| Cc1noc(C)c1CNC(=O)COc1ccccc1CO [C172, Cc1noc(C)c1CNC(=O)COc1ccccc1CO] | > 50 | 0 | – | – | – |
| Cc1ccc(S(=O)(=O)N(CC(=O)Nc2cccc([N+](=O)[O-])c2)Cc2ccc(F)cc2)cc1 [C236, Cc1ccc(cc1)S(=O)(=O)N(Cc2ccc(cc2)F)CC(=O)Nc3cccc(c3)[N+](=O)[O-]] | > 50 | 0 | – | – | – |
| COc1ccc(N(CC(O)CNCCC(C)C)S(=O)(=O)c2ccc(C)cc2)cc1 (centres unmarked) [C248, Cc1ccc(cc1)S(=O)(=O)N(CC(C[NH2+]CCC(C)C)O)c2ccc(cc2)OC] | > 50 | 0 | – | – | – |
| CC(=O)N1CCCCC1CC(=O)NC1(C)CCc2ccccc2C1 (centres unmarked) [C193, CC(=O)N1CCCCC1CC(=O)NC1(C)CCc2ccccc2C1] | > 50 | 0 | – | – | – |
| CC(=O)c1cccc(NC(=O)NC(c2ccc(C)o2)C(C)(C)C)c1 (centres unmarked) [C062, CC(=O)c1cccc(NC(=O)NC(c2ccc(C)o2)C(C)(C)C)c1] | – | – | > 10 | 0 | – |
| COc1cccc(N(CC(=O)Nc2cccc([N+](=O)[O-])c2)S(=O)(=O)c2ccc(C)cc2)c1 [C255, Cc1ccc(cc1)S(=O)(=O)N(CC(=O)Nc2cccc(c2)[N+](=O)[O-])c3cccc(c3)OC] | > 50 | 0 | – | – | – |
| O=C(Nc1nc2c(s1)C(=O)CC(C(=O)NC1CCCc3ccccc31)C2)c1ccncc1 (centres unmarked) [C225, O=C(Nc1nc2c(s1)C(=O)CC(C(=O)NC1CCCc3ccccc31)C2)c1ccncc1] | > 50 | 0 | – | – | – |
| O=c1c(NCc2cc(C(F)(F)F)cc(C(F)(F)F)c2)c(NCc2cc(C(F)(F)F)cc(C(F)(F)F)c2)c1=O [C017, O=C1C(NCC2=CC(C(F)(F)F)=CC(C(F)(F)F)=C2)=C(NCC3=CC(C(F)(F)F)=CC(C(F)(F)F)=C3)C1=O] | – | – | > 50 | 0 | – |
